The results in this text go back to PubChem BioAssay (NCI).

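Values below derive from 48-hour exposures of cells grown in 96-well plates, with endpoints linearly interpolated between the two concentrations bracketing the appropriate inhibition level. GI50 marks 50% less growth. TGI: total growth inhibition.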

Test systems include OVCAR-3 ovarian; U251 CNS; HS 578T breast; A549 NSCLC; SK-OV-3 ovarian; LOX IMVI melanoma; OVCAR-8 ovarian; CAKI-1 renal; SN12C renal; UACC-257 melanoma.
Common to all, as to assay: NCI-60 cell line screen, 48 h

For the compound `COC1C(CO)OC(n2c3c(Cl)cccc3c3c4c(c5c6cccc(Cl)c6[nH]c5c32)C(=O)NC4=O)C(O)C1O` (stereo not given), the TGI in the experiment on OVCAR-3 ovarian was 6.67 µM; in the experiment on U251 CNS, 5.12 µM; in the experiment with HS 578T breast, over 100 µM; in the experiment with A549 NSCLC, 8.2 µM; with SK-OV-3 ovarian it was over 24.9 µM; in the experiment on LOX IMVI melanoma, 0.289 µM. The TGI is 16.6 µM in the experiment with OVCAR-8 ovarian, 0.565 µM in the experiment on CAKI-1 renal, over 29.2 µM in the experiment on SN12C renal and 1.75 µM in the experiment on UACC-257 melanoma.

`O=C1CCSC(=S)N1c1ccc(Br)c(Cl)c1`: the TGI was over 100 µM with OVCAR-3 ovarian; 63.7 µM with U251 CNS; over 100 µM in the experiment with HS 578T breast; over 100 µM in the experiment on A549 NSCLC; 91.5 µM in the experiment with SK-OV-3 ovarian; 50.4 µM in the experiment on LOX IMVI melanoma. Also, the TGI in the experiment on OVCAR-8 ovarian was 92.1 µM; with CAKI-1 renal it was 77.4 µM; with SN12C renal, over 100 µM; in the experiment on UACC-257 melanoma, 37.8 µM.

In the case of `O=C(Nc1ccc(Oc2ccc(NC(=O)Nc3ccc([N+](=O)[O-])cc3)cc2)cc1)Nc1ccc([N+](=O)[O-])cc1`, the GI50 in the experiment on OVCAR-3 ovarian was 2.12 µM; in the experiment with U251 CNS, 2.16 µM; in the experiment with HS 578T breast, 2.34 µM; with A549 NSCLC it was 2.61 µM; in the experiment on SK-OV-3 ovarian, 2.27 µM; with LOX IMVI melanoma it was 1.78 µM. Besides, the GI50 in the experiment on OVCAR-8 ovarian is 3.17 µM; with CAKI-1 renal it was 2.34 µM; in the experiment on SN12C renal it was 2.16 µM; with UACC-257 melanoma, 2.82 µM. The TGI is over 30.3 µM in the experiment on OVCAR-3 ovarian; 12.5 µM in the experiment with U251 CNS; 7.98 µM in the experiment with HS 578T breast; over 78.8 µM in the experiment with A549 NSCLC; 7.51 µM in the experiment on SK-OV-3 ovarian; 10.7 µM in the experiment on LOX IMVI melanoma. Further, the TGI is over 100 µM in the experiment on OVCAR-8 ovarian, 7.55 µM with CAKI-1 renal, over 84.7 µM with SN12C renal and over 26 µM with UACC-257 melanoma.

Consider `COc1ccc2c(c1)[nH]c(=O)c1c3cc(OC)c(OC)cc3cn21`, for which the GI50 in the experiment on OVCAR-3 ovarian is under 0.01 µM; in the experiment with U251 CNS it was under 0.01 µM; with HS 578T breast, under 0.01 µM; in the experiment with A549 NSCLC, under 0.01 µM; in the experiment on SK-OV-3 ovarian it was under 0.0111 µM; with LOX IMVI melanoma it was under 0.01 µM. The GI50 is 0.0193 µM with OVCAR-8 ovarian, under 0.01 µM in the experiment with CAKI-1 renal, 0.0124 µM in the experiment with SN12C renal and 14.7 µM in the experiment with UACC-257 melanoma. Moreover, the TGI is under 0.01 µM with OVCAR-3 ovarian; 1.35 µM in the experiment with U251 CNS; under 0.0231 µM in the experiment with HS 578T breast; 1.41 µM in the experiment on A549 NSCLC; 17.5 µM with SK-OV-3 ovarian; 1.69 µM in the experiment with LOX IMVI melanoma. Moreover, the TGI with OVCAR-8 ovarian was 14.9 µM; in the experiment with CAKI-1 renal, under 0.01 µM; in the experiment on SN12C renal, 15.2 µM; with UACC-257 melanoma, 29.5 µM.

In the case of `O=C(Cc1csc2nc(-c3ccc(Br)cc3)cn12)N/N=C/c1ccc(Cl)cc1Cl`, the GI50 in the experiment with OVCAR-3 ovarian was 34.9 µM; in the experiment with U251 CNS it was 20.6 µM; in the experiment with HS 578T breast, 31.8 µM; in the experiment on A549 NSCLC, 16.8 µM; with SK-OV-3 ovarian it was over 100 µM; in the experiment with LOX IMVI melanoma it was 21.2 µM. The GI50 in the experiment on OVCAR-8 ovarian was 18.6 µM; in the experiment on CAKI-1 renal, 36.1 µM; in the experiment on SN12C renal, 84.7 µM; in the experiment with UACC-257 melanoma, 68.9 µM. Also, the TGI was over 100 µM with OVCAR-3 ovarian; 44.3 µM with U251 CNS; 89.1 µM with HS 578T breast; 37.5 µM in the experiment on A549 NSCLC; over 100 µM with SK-OV-3 ovarian; 48.6 µM in the experiment with LOX IMVI melanoma. Besides, the TGI was 50.3 µM in the experiment with OVCAR-8 ovarian, over 100 µM in the experiment with CAKI-1 renal, over 100 µM with SN12C renal and over 100 µM in the experiment on UACC-257 melanoma.

Take `O=C1NC(=O)[C@@H](c2c[nH]c3ccccc23)[C@@H]1c1c[nH]c2ccccc12`: the GI50 was over 25 µM in the experiment with OVCAR-3 ovarian; over 25 µM in the experiment on U251 CNS; 24.8 µM in the experiment with HS 578T breast; over 25 µM with A549 NSCLC; over 25 µM in the experiment with SK-OV-3 ovarian; over 25 µM in the experiment on LOX IMVI melanoma. For the same compound, the GI50 in the experiment with OVCAR-8 ovarian, with CAKI-1 renal, in the experiment with SN12C renal and in the experiment with UACC-257 melanoma was over 25 µM each time. The TGI in the experiment on OVCAR-3 ovarian, in the experiment with U251 CNS, with HS 578T breast, in the experiment on A549 NSCLC, in the experiment on SK-OV-3 ovarian and with LOX IMVI melanoma was over 25 µM throughout. Moreover, the TGI in the experiment with OVCAR-8 ovarian, with CAKI-1 renal, in the experiment on SN12C renal and with UACC-257 melanoma was over 25 µM throughout.

In the case of `O=C(c1nn(-c2ccc(Cl)cc2)cc1O)n1nc(C(F)(F)F)cc1-c1ccccc1`, the GI50 in the experiment on OVCAR-3 ovarian was 2.25 µM; in the experiment with U251 CNS, 2.65 µM; with HS 578T breast, 0.556 µM; with A549 NSCLC it was 6.51 µM; with SK-OV-3 ovarian, 2.53 µM; in the experiment with LOX IMVI melanoma, 1.88 µM. In addition, the GI50 is 1.87 µM in the experiment with OVCAR-8 ovarian, 1.89 µM in the experiment with CAKI-1 renal, 3.57 µM in the experiment on SN12C renal and 2.25 µM in the experiment with UACC-257 melanoma. For the same compound, the TGI with OVCAR-3 ovarian, with U251 CNS, with HS 578T breast, with A549 NSCLC, in the experiment on SK-OV-3 ovarian and with LOX IMVI melanoma was over 100 µM in each case. Also, the TGI in the experiment on OVCAR-8 ovarian is over 100 µM; in the experiment on CAKI-1 renal, over 36.8 µM; in the experiment with SN12C renal, over 100 µM; in the experiment with UACC-257 melanoma it was 18.2 µM.

Turning to `Oc1ccc(Oc2cnc3cc(Cl)ccc3n2)cc1`, the GI50 in the experiment with OVCAR-3 ovarian is 15.8 µM; in the experiment with U251 CNS, 54.7 µM; in the experiment with HS 578T breast, 35.5 µM; with A549 NSCLC, 61.8 µM; in the experiment with SK-OV-3 ovarian, over 100 µM; in the experiment with LOX IMVI melanoma, 34.9 µM. Also, the GI50 in the experiment on OVCAR-8 ovarian was over 100 µM; with CAKI-1 renal, 21.8 µM; in the experiment with SN12C renal, 34.2 µM; in the experiment on UACC-257 melanoma it was 65.7 µM. Moreover, the TGI was 38.4 µM in the experiment on OVCAR-3 ovarian; over 100 µM with U251 CNS; over 100 µM in the experiment on HS 578T breast; over 100 µM with A549 NSCLC; over 100 µM in the experiment with SK-OV-3 ovarian; over 100 µM with LOX IMVI melanoma. For the same compound, the TGI was over 100 µM with OVCAR-8 ovarian, 68.2 µM in the experiment with CAKI-1 renal, over 100 µM with SN12C renal and over 100 µM in the experiment on UACC-257 melanoma.
